The values below come from patent US20040033213A1, “Methods of modulating dendritic cells using adjuvants” (Corixa Corporation, priority 2002, published 2004).

Experiment [1] has as its system murine bone marrow derived DCs + D011.10 T cells. Kind of experiment: APC function of ova-pulsed, lipid A potentiated murine DCs co-cultured with D011.10 T cells (cytokine ELISA). The format is cell-based. The settings on record: for IFN-γ release by D011.10 T cells (in words): DCs precultured 38 hours, FIG. 3; for IL-2 secretion (in words): all T cell:APC ratios, FIG. 1; for IL-12 (p70) in DC+D011.10 co-cultures (in words): FIG. 5; for release of IL-12 (p40) homodimer in DC+D011.10 co-cultures (in words): FIG. 7. The source says: These antigen pulsed, lipid A potentiated cells were then washed thoroughly and titered against ova-specific T cell effector cells in vitro at an APC: T cell ratio titration of 1:1 out to as high as 1:512. The effector T cells in this in vitro assay were the antigen naive, but antigen (ova) specific, MHC restricted I-A^d splenic T cells from transgenic D011.10 mice.
D011.10 TCR-transgenic mice were used in these experiments as donors of antigen specific naive T cells. In their germline DNA these mice contain rearranged TCR-Vα and -Vβ genes that encode a T cell receptor (TCR) specific for the ovalbumin peptide 323-339 bound to IA^d (Balb/c) Class II MHC molecules. The transgenic ova peptide specific TCR can be detected with the KJ1-26 monoclonal antibody (mAb) that binds only to this particular TCR heterodimer. These cells provide a ready source of “normal” antigen (ova)-specific effector T cells. Effective antigen-mediated APC stimulation of those T cells is generally measured by ELISA quantitation of IL-2 or IFN-γ in the culture supernatants of DC+D011.10 T cells after 24-48 hours of incubation.
In one experiment, murine bone marrow derived DCs (6 day cultures) were pulsed with ova (50 μg/ml-5×10^5 cells/ml) and then potentiated overnight with LPS(R595), MPL® immunostimulant-S, RC-527, RC-529 or RC-544 prior to being cultured together with naive D011.10 effector T cells (FIGS. 1-7). The APC function of these DCs as measured by their ability to stimulate IL-2, IFN-γ IL-12 (p70) and IL-12 (p40) secretion in the DC+D011.10 co-culture systems was analyzed. All of the data shown in FIGS. 1-7 was developed from DCs maintained in lipid A induction cultures for either 15 or 38 hours prior to use in the T cell assay.

In experiment [2] the test system is cultured human dendritic cells (DC). The experiment in a line: Flow cytometry of cell surface activation markers on human DCs restimulated 72 hours with AGPs (titration). The settings on record: titration 0.1-2 μg/ml, FIG. 18. The format is cell-based.
In experiment [3] the test system is KJ1 positive D011.10 CD4 T cells. The experiment in a line: OVA pulsed DC transfer into D011.10 loaded Balb/c mice. To be noted: for Total KJ1 Positive Cells/Spleen: others 100 ng/ml. The class given is in vivo. The procedure: In a second experiment 6-7 day bone marrow derived (Balb/c) DCs were pulsed with antigen and subsequently stimulated overnight with LPS, MPL® immunostimulant-S, and RC-527 (Table 6). 5×10^6 D011.10 CD4 (KJ1-positive) T cells were transferred into Balb/c mice, and 24 hours later ova-pulsed cultured, DCs from the control group (pulsed with ova only) and the indicated test DCs potentiated with LPS, MPL® immunostimulant-S or RC-527 were also injected intravenously. […] The transferred DCs stimulated with ova only, ova+LPS and ova+MPL® immunostimulant-S produced a similar effect in inducing the amplification of D011.10 T lymphocyte numbers above the value observed when untreated DCs (i.e., no ova and no lipid A) were used as the putative APC source and transfected into Balb/c mice preinjected with KJ1 CD4 cells.
5×10^6 KJ1 positive D011.10 spleen cells were injected into Balb/c mice (I.V.) on day zero minus 1; 24 hrs later 5×10^6 DC's from the indicated in vitro induction test groups were injected I.V. and the spleens from test animals were harvested 3 and 5 days later for total KJ1 enumeration.

For experiment [4], the system named is cryogenically stored 10 day murine DCs + D011.10 effector T cells. The experiment in a line: Cryogenically preserved 10 day murine DCs in the D011.10 T cell assay (IFN-γ ELISA). The format is cell-based. The procedure:
In order to determine if 10 day GM-CSF precultured DCs could be recovered from cryogenic storage and still retain their functional potential, studies were carried out to determine the functional integrity of LPS- and RC-527-stimulated, cryogenically preserved, 10 day DCs in the D011.10 T cell assay system. Specifically, 10 day GM-CSF-precultured DCs were stored in liquid nitrogen for several weeks. The cells were subsequently thawed and maintained for 24 hours in tissue culture in the presence of GM-CSF. After 24 hours in this “resting” culture, DCs were pulsed with ova for four hours and potentiated with LPS for 24 hours prior to placing them against D011.10 effector T cells at 4:1 and 8:1 ratios.
D011.10 effector T cell cultures were maintained for 24 hours and 48 hours, and culture supernatants were collected at both time points. These supernatants were tested for IFN-γ using a commercial ELISA system. The IFNγ response induced either by antigen-pulsed, lipid A stimulated DCs after 24 hours incubation with D011.10 T cells (FIG. 13a) or by LPS and RC-527 stimulated, cryogenically stored, cultured DCs after 48 hours of incubation with D011.10 effector T cells (FIG. 13b) was measured.

Each structure is given as a SMILES string.

Regarding `CCCCCCCCCCCCCC(=O)O[C@H](CCCCCCCCCCC)CC(=O)NCCO[C@@H]1O[C@H](CO)[C@@H](OP(=O)(O)O)[C@H](OC(=O)C[C@@H](CCCCCCCCCCC)OC(=O)CCCCCCCCCCCCC)[C@H]1NC(=O)C[C@@H](CCCCCCCCCCC)OC(=O)CCCCCCCCCCCCC.CCN(CC)CC` [RC-529, 2-[(R)-3-Tetradecanoyloxytetradecanoylamino]ethyl 2-Deoxy-4-O-phosphono-3-O-[(R)-3-tetradecanoyoxytetradecanoyl]-2-[(R)-3-tetradecanoyoxytetradecanoylamino]-β-D-glucopyranoside triethylammonium salt], in experiment [1], the “IFN-γ release by D011.10 T cells (in words)” value is on record as “very comparable to each other”, the “IL-12 (p70) in DC+D011.10 co-cultures (in words)” value is “weakest ability” and the “release of IL-12 (p40) homodimer in DC+D011.10 co-cultures (in words)” value is listed as “moderately less potent than either RC-544 or MPL® immunostimulant-S”. Further, in experiment [1] (DCs prestimulated 15 hours), the “IL-2 secretion (in words)” value is reported as “comparable in their ability to stimulate IL-2 secretion”.

Turning to `CCCCCCCCCCCC(CC(=O)NC(COC1OC(CO)C(OP(=O)(O)O)C(OC(=O)CC(CCCCCCCCCCC)OC(=O)CCCCCCCCC)C1NC(=O)CC(CCCCCCCCCCC)OC(=O)CCCCCCCCC)C(=O)O)OC(=O)CCCCCCCCC` (centres unmarked) [RC-527], the “CD86 expression, mean channel fluorescence (in words)” value in experiment [2] is given as “highest stimulation of CD86 expression over most of the titration range”. In addition, in experiment [3] (Day 3 after I.V. transfer of 5×10^6 OVA pulsed DCs stimulated in vitro, LPS 10 ng/ml), the “Total KJ1 Positive Cells/Spleen” value was 4.1 × 10^6 Cells/Spleen. Also, in experiment [3] (Day 5 after I.V. transfer of 5×10^6 OVA pulsed DCs stimulated in vitro, LPS 10 ng/ml), the “Total KJ1 Positive Cells/Spleen” value is recorded as 3.0 × 10^6 Cells/Spleen. Also, in experiment [3] (day 3 and day 5 after transfer of stimulated DCs), the “splenic KJ1+ CD4 T cell numbers (in words)” value is recorded as “higher levels of splenic KJ1^+ CD4 T cell numbers than any of the other test groups at both time points”. For the same compound, the “KJ1+ CD4 response, % of all splenic CD4 cells” value in experiment [3] (second, similar DC transfer experiment, at 5 days, LPS 10 ng/ml, MPL-S 100 ng/ml) is listed as 3.9%. Moreover, in experiment [1], the “IFN-γ release by D011.10 T cells (in words)” value is listed as “generally more potent”, the “IL-12 (p70) in DC+D011.10 co-cultures (in words)” value was “most potent” and the “release of IL-12 (p40) homodimer in DC+D011.10 co-cultures (in words)” value is listed as “most potent effect”. Moreover, in experiment [1] (DCs prestimulated 15 hours, FIG. 2), the “IFN-γ secretion by D011.10 cells (in words)” value is “high levels of IFN-γ release”. Besides, the “IL-2 secretion (in words)” value in experiment [1] (DCs prestimulated 15 hours) was “comparable in their ability to stimulate IL-2 secretion”. For the same compound, the “IFN-γ secretion at T cell:APC ratio 32:1 (in words)” value in experiment [1] (FIG. 4) is recorded as “comparable to that observed with LPS”. In experiment [4] (compared with unfrozen 10 day DCs), the “IFN-γ response of cryogenically stored DCs after antigen pulsing and activation (in words)” value is reported as “fully capable of supporting an IFNγ response”. In addition, the “IFN-γ response, 48 hours versus 24 hours of incubation (in words)” value in experiment [4] (cryogenically stored DCs, FIG. 13) was “significantly stronger IFN-γ response after 48 hours”.
